Results reported in ChEMBL document CHEMBL2177041, “Identification of new potent GPR119 agonists by combining virtual screening and combinatorial chemistry” (J Med Chem, 2012).

Assays:
[1] = molecular target: T1, Glucose-dependent insulinotropic receptor (Homo sapiens) (UniProt Q8TDV5); experiment: Intrinsic activity at human GPR119 expressed in MIN6 cells assessed as intracellular cAMP level after 45 mins by ALPHAscreen cAMP assay relative to N-(4-methanesulfonylphenyl)-5-nitro-6-[4-(phenylsulfanyl)piperidin-1-yl]pyrimidin-4-amine; format: functional, cell-based
T1 sequence (whole entry): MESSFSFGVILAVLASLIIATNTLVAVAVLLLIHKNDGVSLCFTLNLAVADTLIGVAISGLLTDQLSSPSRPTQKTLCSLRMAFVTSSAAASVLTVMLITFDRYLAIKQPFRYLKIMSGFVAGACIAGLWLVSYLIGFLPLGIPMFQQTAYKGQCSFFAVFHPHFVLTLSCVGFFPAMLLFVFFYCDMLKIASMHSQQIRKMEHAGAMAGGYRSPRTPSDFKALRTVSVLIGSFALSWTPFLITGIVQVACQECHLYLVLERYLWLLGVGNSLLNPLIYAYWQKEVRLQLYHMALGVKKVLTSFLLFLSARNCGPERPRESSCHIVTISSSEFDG

[2] = molecular target: T2, Glucose-dependent insulinotropic receptor (Homo sapiens, UniProt Q8TDV5); experiment: Agonist activity at human GPR119 expressed in MIN6 cells assessed as intracellular cAMP level after 45 mins by ALPHAscreen cAMP assay; format: functional, cell-based
T2 sequence (Q8TDV5 whole entry): T1 sequence (whole entry)

For CC(C)(C)OC(=O)N1CCC2(CC1)CC(C(=O)Nc1cc(F)c(C#N)cc1F)=NO2, the Intrinsic activity [1] was 170% and the EC50 [2] was 0.093 µM.

Work on N#Cc1cc(F)c(NC(=O)C2=NOC3(CCN(c4nc(-c5ccccc5)no4)CC3)C2)cc1F yielded an Intrinsic activity [1] of 173% and an EC50 [2] of 0.03 µM.

C[S+]([O-])c1cc(F)c(NC(=O)C2=NOC3(CCN(c4nc(-c5ccccc5)no4)CC3)C2)cc1F (stereo not drawn) showed an Intrinsic activity [1] of 160% and an EC50 [2] of 0.021 µM.

In the case of CC(C)(C)OC(=O)N1CCC2(CCN(C(=O)Nc3ccc(S(C)(=O)=O)cc3Br)CC2)CC1, the Intrinsic activity [1] is reported as 165% and the EC50 [2] is reported as 0.8 µM.
